According to ChEMBL document CHEMBL3797191, “Isocoumarins, miraculous natural products blessed with diverse pharmacological activities” (Eur J Med Chem, 2016):
≈ marks a conversion by molar mass, not a printed value.

Tests used:
[1] = tested on: Staphylococcus aureus; test: Antibacterial activity against Staphylococcus aureus; format: functional
[2] = tested on: P388; test: Cytotoxicity against mouse P388 cells; format: functional, cell-based
[3] = tested on: Rattus norvegicus; test: Anti-ulcer activity in Sprague-Dawley rat stomach assessed as protection against stress-induced gastric ulcer at 25 mg/kg, po pretreated for 30 mins followed by stress measured after 6 hrs relative to control; format: functional
[4] = tested on: Tobacco mosaic virus; test: Antiviral activity against TMV assessed as inhibition of viral infection at 20 uM by half-leaf method relative to control; format: functional
[5] = tested on: MCF7; test: Cytotoxicity against human MCF7 cells assessed as reduction in cell viability after 3 days by MTT assay; format: functional, cell-based; settings: MCF7, 72 h
[6] = tested on: A549; test: Cytotoxicity against human A549 cells assessed as reduction in cell viability after 3 days by MTT assay; format: functional, cell-based; settings: A549, 72 h
[7] = molecular target: T1, Kallikrein-5 (Homo sapiens, UniProt Q9Y337); test: Competitive inhibition of human kallikrein-5
T1 sequence (Q9Y337 whole entry): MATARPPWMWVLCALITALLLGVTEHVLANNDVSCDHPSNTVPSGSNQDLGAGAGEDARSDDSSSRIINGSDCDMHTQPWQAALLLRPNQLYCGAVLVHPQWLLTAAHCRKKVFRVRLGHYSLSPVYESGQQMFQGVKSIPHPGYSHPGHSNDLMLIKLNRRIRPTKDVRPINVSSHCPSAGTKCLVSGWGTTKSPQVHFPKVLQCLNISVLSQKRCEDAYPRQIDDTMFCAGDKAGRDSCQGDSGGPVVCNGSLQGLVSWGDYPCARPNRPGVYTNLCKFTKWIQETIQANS

[8] = molecular target: Kallikrein-7 (Homo sapiens, UniProt P49862); test: Competitive inhibition of human kallikrein-7
Kallikrein-7, sequence (P49862 whole entry): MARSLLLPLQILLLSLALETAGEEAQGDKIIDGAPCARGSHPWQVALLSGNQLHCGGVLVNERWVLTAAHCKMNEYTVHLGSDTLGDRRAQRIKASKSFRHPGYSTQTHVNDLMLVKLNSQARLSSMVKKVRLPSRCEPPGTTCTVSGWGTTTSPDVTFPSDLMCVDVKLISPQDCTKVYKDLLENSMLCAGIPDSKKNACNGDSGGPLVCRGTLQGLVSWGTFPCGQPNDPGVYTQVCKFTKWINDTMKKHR

[9] = Therapeutic ratio of LC50 to EC50 for Balanus amphitritea; format: ADME; settings: amphibalanus amphitrite; read-out: TI
[10] = molecular target: T2, Aromatase (Homo sapiens, UniProt P11511); test: Inhibition of aromatase (unknown origin)
T2 sequence (P11511 whole entry): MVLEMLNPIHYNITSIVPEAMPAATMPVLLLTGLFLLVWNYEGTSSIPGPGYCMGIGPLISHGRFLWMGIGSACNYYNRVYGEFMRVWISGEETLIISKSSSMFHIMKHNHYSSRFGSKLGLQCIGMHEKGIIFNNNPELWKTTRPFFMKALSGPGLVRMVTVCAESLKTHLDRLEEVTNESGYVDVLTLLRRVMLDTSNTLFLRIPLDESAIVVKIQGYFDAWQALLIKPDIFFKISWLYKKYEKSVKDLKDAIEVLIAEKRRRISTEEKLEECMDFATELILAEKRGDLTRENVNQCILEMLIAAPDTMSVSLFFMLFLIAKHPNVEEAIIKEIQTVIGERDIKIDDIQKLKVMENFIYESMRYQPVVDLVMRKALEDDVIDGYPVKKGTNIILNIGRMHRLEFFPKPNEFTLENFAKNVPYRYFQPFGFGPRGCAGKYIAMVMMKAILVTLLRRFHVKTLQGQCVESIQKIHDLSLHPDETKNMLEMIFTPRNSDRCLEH

[11] = Antioxidant activity assessed as radical scavenging activity; format: physicochemical
[12] = tested on: HepG2; test: Cytotoxicity against human HepG2 cells; format: functional, cell-based
[13] = tested on: MCF7; test: Cytotoxicity against human MCF7 cells; format: functional, cell-based
[14] = tested on: Echinochloa frumentacea; test: Growth inhibition of Barnyard millet seeds at 50 uM after 5 days relative to control; format: functional; settings: 120 h, read-out: GI
[15] = tested on: Tobacco mosaic virus; test: Antiviral activity against TMV infected in Nicotiana glutinosa leaves assessed as inhibition of lesions at 20 uM pretreated for 30 mins followed by viral infection measured after 3 to 4 days by half-leaf method relative to control; format: functional
[16] = Cytotoxicity against human NB4 cells assessed as reduction in cell viability after 48 hrs by MTT assay; format: functional, cell-based; settings: NB-4, 48 h
[17] = tested on: A549; test: Cytotoxicity against human A549 cells assessed as reduction in cell viability after 48 hrs by MTT assay; format: functional, cell-based; settings: A549, 48 h
[18] = tested on: SH-SY5Y; test: Cytotoxicity against human SH-SY5Y cells assessed as reduction in cell viability after 48 hrs by MTT assay; format: functional, cell-based
[19] = Cytotoxicity against human PC3 cells assessed as reduction in cell viability after 48 hrs by MTT assay; format: functional, cell-based; settings: PC-3, 48 h
[20] = tested on: MCF7; test: Cytotoxicity against human MCF7 cells assessed as reduction in cell viability after 48 hrs by MTT assay; format: functional, cell-based; settings: MCF7, 48 h
[21] = tested on: KB; test: Cytotoxicity against human KB cells assessed as reduction in cell viability by resazurin microplate assay; format: functional, cell-based
[22] = tested on: NCI-H187; test: Cytotoxicity against human NCI-H187 cells assessed as reduction in cell viability by resazurin microplate assay; format: functional, cell-based
[23] = tested on: KB; test: Cytotoxicity against human KB cells; format: functional, cell-based
[24] = tested on: NCI-H187; test: Cytotoxicity against human NCI-H187 cells; format: functional, cell-based

**Q.** Which results are given for `CC[C@H](N)[C@H](O)[C@H](O)CC(=O)N[C@@H](CC(C)C)[C@@H]1Cc2cccc(O)c2C(=O)O1`?
**A.** MIC [1]: 12 µM (≈ 4.9 µg/mL); IC50 [2]: 15 µM

**Q.** Which Activity [3] does the source give for `CC(C)C[C@H](NC(=O)[C@@H](O)[C@H]1OC(=O)C[C@@H]1N)[C@@H]1Cc2cccc(O)c2C(=O)O1` here?
**A.** 83%

**Q.** For `COc1cc2c(c3c1OC(C)(C)CC3=O)C[C@@H](C)OC2=O`, which inhibition at 20 µM [4] is on record?
**A.** 28.6%

**Q.** What about the IC50 [5] of the same compound?
**A.** 4 µM

**Q.** What about the IC50 [6] of the same compound?
**A.** 3.8 µM

**Q.** With `COc1cc2c(OC)c3cc(C)oc(=O)c3c(O)c2c(O)c1-c1c(OC)cc2c(OC)c3cc(C)oc(=O)c3c(O)c2c1O` as the compound, how does the Ki [7] read?
**A.** 22.9 µM

**Q.** With `CC(C)C[C@H](NC(=O)[C@@H](O)[C@@H](O)[C@@H](N)CC(=O)O)[C@@H]1Cc2cccc(O)c2C(=O)O1` as the compound, how does the Activity [3] read?
**A.** 100%

**Q.** For `COC1=C(c2c(OC)cc3c(c2O)C(=O)C2=C(C[C@H](C)OC2=O)C3=O)C(=O)c2c(O)c3c(c(O)c2C1=O)C[C@H](C)OC3=O`, which Ki [7] is on record?
**A.** 22.9 µM

**Q.** What about the Ki [8] of the same compound?
**A.** 12.2 µM

**Q.** With `CCCCC[C@H]1OC(=O)c2c(O)c(CC=C(C)C)cc(O)c2[C@H]1OC` as the compound, how does the selectivity ratio [9] read?
**A.** > 15

**Q.** For `CC1(C)CCc2c(cc(O)c3c2CC(CO)OC3=O)O1` (centres undefined), which inhibition at 20 µM [4] is on record?
**A.** 33.8%

**Q.** Which IC50 [10] does the source give for `C[C@H](O)C/C=C/CCCCC1Cc2cc(O)cc(O)c2C(=O)O1` (some centres undefined) here?
**A.** 12.3 µM

**Q.** And the IC50 [11]?
**A.** 21.7 µM

**Q.** For `CC(C)C[C@H](NC(=O)[C@@H](O)[C@@H](O)[C@@H](N)CC(N)=O)[C@@H]1Cc2cccc(O)c2C(=O)O1`, which Activity [3] is on record?
**A.** 72%

**Q.** Which IC50 [2] does the source give for `CCCC1Cc2cc(O)c(Br)c(O)c2C(=O)O1` (centres undefined) here?
**A.** 0.19 µg/mL

**Q.** What does the source list for `CC[C@@H]1Cc2cc(O)cc(O)c2C(=O)O1`?
**A.** IC50 [12]: 6.41 µM; IC50 [13]: 6.67 µM

**Q.** With `Cc1c(O)cc2c(c1O)C(=O)O[C@H](C)C2` as the compound, how does the IC50 [12] read?
**A.** 6.41 µM

**Q.** And the IC50 [13]?
**A.** 6.67 µM

**Q.** For `CC(C)C[C@H](NC(=O)[C@@H](O)[C@H]1O[C@](C)(O)[C@@]2(C)NC(=O)C[C@@H]1N2)[C@@H]1Cc2cccc(O)c2C(=O)O1`, which inhibition of growth at 50 µM [14] is on record?
**A.** 82%

**Q.** For `C/C=C/CC[C@H]1OC(=O)c2c(O)c(CC=C(C)C)cc(O)c2[C@H]1OC`, which selectivity ratio [9] is on record?
**A.** > 15

**Q.** What does the source list for `COc1ccc(CCCO)c2cc(CC(C)=O)oc(=O)c12`?
**A.** inhibition at 20 µM [15]: 30.6%; IC50 [16]: 2800 nM; IC50 [17]: 2800 nM; IC50 [18]: 2800 nM; IC50 [19]: 2800 nM; IC50 [20]: 2800 nM

**Q.** Which IC50 [12] does the source give for `Cc1c(O)cc2c(c1O)C(=O)O[C@H](CO)C2` here?
**A.** 6.41 µM

**Q.** And the IC50 [13]?
**A.** 6.67 µM

**Q.** What does the source list for `C[C@@H]1Cc2cc(O)c(C=O)c(O)c2C(=O)O1`?
**A.** IC50 [12]: 6.41 µM; IC50 [13]: 6.67 µM

**Q.** With `CC(C)C[C@H](NC(=O)C[C@@H](O)[C@H]1O[C@](C)(O)[C@H](C)NC1CC(N)=O)[C@@H]1Cc2cccc(O)c2C(=O)O1` (some centres undefined) as the compound, how does the inhibition of growth at 50 µM [14] read?
**A.** 7%

**Q.** With `COc1c(O)c(-c2c(O)c(OC)c(O)c3c(=O)oc(C)cc23)c2cc(C)oc(=O)c2c1O` as the compound, how does the IC50 [21] read?
**A.** 24.4 µg/mL (≈ 55.2 µM)

**Q.** What about the IC50 [22] of the same compound?
**A.** 8.31 µg/mL (≈ 18.8 µM)

**Q.** And the IC50 [23]?
**A.** 24.4 µg/mL (≈ 55.2 µM)

**Q.** What about the IC50 [24] of the same compound?
**A.** 8.31 µg/mL (≈ 18.8 µM)

**Q.** For `COc1c(O)cc2c(c1CC=C(C)C)C[C@@H](C)OC2=O`, which inhibition at 20 µM [4] is on record?
**A.** 28.6%

**Q.** And the IC50 [5]?
**A.** 4 µM

**Q.** And the IC50 [6]?
**A.** 3.8 µM

**Q.** For `COc1cc(OC)c2c(c1CC=C(C)C)C[C@@H](C)OC2=O`, which inhibition at 20 µM [4] is on record?
**A.** 28.6%

**Q.** And the IC50 [5]?
**A.** 4 µM

**Q.** What about the IC50 [6] of the same compound?
**A.** 3.8 µM

**Q.** With `CC(=O)Cc1cc2c(CCCO)cc(O)cc2c(=O)o1` as the compound, how does the inhibition at 20 µM [15] read?
**A.** 28.4%

**Q.** What about the IC50 [16] of the same compound?
**A.** 2800 nM

**Q.** And the IC50 [17]?
**A.** 2800 nM

**Q.** And the IC50 [18]?
**A.** 2800 nM

**Q.** What about the IC50 [19] of the same compound?
**A.** 2800 nM

**Q.** And the IC50 [20]?
**A.** 2800 nM
